Source: publication PMC10724569 (Heliyon, 2023)

System: VRBMP-1 binding to ACE2 on NOK cells
Assay type: cell-based, human

diminazene aceturate [DIZE]
Binding of VRBMP-1 to NOK cells after DIZE treatment: significantly reduced binding of VRBMP-1 at all three concentrations in a dose-dependent manner | Reduction of VRBMP-1 binding, decoy peptides and DIZE each alone: significantly reduced the binding of VRBMP-1 with nearly the same potency
